From patent US12024543B2, “Micropeptides and use of same for modulating gene expression” (UNIVERSITE PAUL SABATIER TOULOUSE III, priority 2013, dated 2024)

Experiments:
HsmiR155 = test: HeLa cells transfected to overexpress HsmiPEP155, relative expression of Pre-miR155; assay type: cell-based, Homo sapiens; conditions: HeLa cells overexpressing HsmiPEP155
Description: The DNA fragments of interest (HsmiPEP155 and the mutated miPEP) were synthesized or amplified by PCR using specific primers, and then cloned using the enzymes XhoI and NotI into a pUAS plasmid permitting their overexpression by means of the GAL4 transcription factor, the expression of which is controlled by a constitutive strong promoter.
The different constructs were produced either by PCR amplification on genomic DNA of HeLa cells, or by RT-PCR on total RNAs of L428 human cells. The amplified PCR fragments are digested with the HindIII/EcoRI restriction enzymes and then cloned into the vector pcDNA3.1. The DH5a strain of Escherichia coli is electroporated and then cultured on a solid medium (2YT+agar+ampicillin). The plasmid DNA from different clones is then prepared and sequenced for verification. The constructs are then prepared using the QIAfilter Plasmid Midi kit (QIAGEN) and stored at −20° C.
The HeLa cells (established tumour line, ATCC CCL-2.2) are cultured in a 6-well plate in complete medium [(DMEM (1×)+Glutamax+4.5 g/L glucose without pyruvate+1× penicillin/streptomycin+1 mM Na-pyruvate+10% calf serum] and placed in an incubator at 37° C. and 5% CO2.
The cells are transfected when they are at 50% confluence. […]
10-15 μg of total RNAs is then analysed by Northern blot on 15% acrylamide gel [solution of acrylamide/40% bis-acrylamide, ratio 19:1], 7M urea in TBE 1×. […]

Arabidopsis thaliana [1] = test: Growth of Arabidopsis thaliana plants watered with synthetic miPEP; assay type: in vivo; conditions: A. thaliana; watered with 0.1 μM synthetic peptide, 3 weeks of growth, vs water
Protocol: The photographs show two plants (top views and side views) after 3 weeks of growth: a control plant watered with water (A), and a plant watered with a composition of 0.1 μM of synthetic peptide corresponding to AtmiPEP164a (B).
The photographs show two plants (top views and side views) after 3 weeks of growth: a control plant watered with water (A), and a plant watered with a composition of 0.1 μM of synthetic peptide corresponding to AtmiPEP319a1 (B).

AtmiR319a = test: Overexpression of AtmiPEP319a1 in A. thaliana, qRT-PCR of AtmiR319a; assay type: in vivo, Arabidopsis thaliana; conditions: overexpression of AtmiPEP319a1 vs control plant
AtmiR165a [2] = test: Expression of AtmiPEP165a (AtmiORF165a) in tobacco expressing AtmiR165a; assay type: in vivo, Nicotiana benthamiana; conditions: overexpression of AtmiORF165a
Protocol: At present, AtmiPEP165a and AtmiPEP319a2, identified in Arabidopsis thaliana, have already been characterized.
The total RNA was extracted from roots of M. truncatula or from tobacco leaves using the extraction kit RNeasy Plant Mini Kit (Qiagen). The reverse transcription was performed using the reverse transcriptase SuperScript II (Invitrogen) starting from 500 ng of total RNA. Three repetitions (n=3) were carried out, each with two technical repetitions. Each experiment was repeated from two to three times. The amplifications by qPCR were carried out using a LightCycler 480 System thermocycler (Roche Diagnostics) by the method described in Lauressergues et al. (Plant J., 72(3): 512-22, 2012).
For the miPEPs 165a and 319a, the corresponding miORFs were cloned into pBIN19 by the method described in Combier et al. (Genes & Dev, 22: 1549-1559, 2008).
The composite plants having roots transformed with Agrobacterium rhizogenes were obtained by the method described in Boisson-Dernier et al. (Mol Plant-Microbe Interact, 18: 1269-1276, 2005). The transformed roots were verified and selected by observations of DsRED with a binocular fluorescence magnifier. The control roots correspond to roots transformed with A. rhizogenes not containing the pPEX-DsRED vector. Transformation of the tobacco leaves was carried out by the method described in Combier et al. (Genes & Dev, 22: 1549-1559, 2008).

Arabidopsis thaliana [3] = test: Root growth of Arabidopsis thaliana treated with AtmiPEP165a; assay type: in vivo; conditions: Arabidopsis thaliana treated with AtmiPEP165a vs control plant of the same age
AtmiR165a [4] = test: Relative expression of AtmiR165a and its target genes in A. thaliana roots treated with AtmiPEP165a; assay type: in vivo, Arabidopsis thaliana; conditions: AtmiPEP165a 0.01, 0.1, 1 or 10 μM vs water
AtmiR165a [5] = test: Northern blot of miR165a in A. thaliana roots treated with synthetic AtmiPEP165a; assay type: in vivo, Arabidopsis thaliana; conditions: 0.1 μM synthetic miPEP165a in water vs water

## MEMALMVAQTRKGKSVV (listed as Homo sapiens) [HsmiPEP155]
HsmiR155
  expression of HsmiR155 (relative expression of Pre-miR155): increases

## MNIHTYHHLLFPSLVFHQSSDVPNALSLHIHTYEYIIVVIDPFRITLAFR (listed as Arabidopsis thaliana) [AtmiPEP319a1]
Arabidopsis thaliana [1]
  plant growth: increases plant growth significantly
AtmiR319a
  accumulation of AtmiR319a: increase

## MRVKLFQLRGMLSGSRIL (listed as Arabidopsis thaliana) [AtmiPEP165a]
AtmiR165a [2]
  accumulation of AtmiR165a: increase
Arabidopsis thaliana [3]
  root growth phenotype: greatly accelerated root growth
AtmiR165a [4]
  accumulation of AtmiR165a: dose-dependent effect
  regulation of the target genes of miR165a (PHV, PHB and REV): negative regulation
AtmiR165a [5]
  accumulation of miR165a (Northern blot): increase
